Assay [1] concerns Trichogramma nubilale. Nature of the assay: Contact toxicity against Trichogramma nubilale assessed as mortality after 24 hr by modified slight dry film method. Type of assay: functional.
For assay [2], the system named is Trichogramma nubilale.

Consider `CC1(C)[C@H](/C=C(\Cl)C(F)(F)F)[C@@H]1C(=O)O[C@@H](C#N)c1cccc(Oc2ccccc2)c1` (relative stereo) [REL-LAMBDA CYHALOTHRIN], for which, in assay [1], the LC50 worked out at 13.69 mgAi/L and the LC95 came out at 127.6 mgAi/L.

In the case of `CC[C@H](C)[C@H]1O[C@]2(C=C[C@@H]1C)C[C@@H]1C[C@@H](C/C=C(\C)[C@@H](O[C@H]3C[C@H](OC)[C@@H](O[C@H]4C[C@H](OC)[C@@H](O)[C@H](C)O4)[C@H](C)O3)[C@@H](C)/C=C/C=C3\CO[C@@H]4[C@H](O)C(C)=C[C@@H](C(=O)O1)[C@]34O)O2.CO[C@H]1C[C@H](O[C@H]2[C@H](C)O[C@@H](O[C@@H]3/C(C)=C/C[C@@H]4C[C@@H](C[C@]5(C=C[C@H](C)[C@@H](C(C)C)O5)O4)OC(=O)[C@@H]4C=C(C)[C@@H](O)[C@H]5OC/C(=C\C=C\[C@@H]3C)[C@]54O)C[C@@H]2OC)O[C@@H](C)[C@@H]1O` [ABAMECTIN], in assay [1], the LC50 is recorded as 3.57 mgAi/L and the LC95 was determined as 25.42 mgAi/L.

As to `C/C(=N\C#N)N(C)Cc1ccc(Cl)nc1` [ACETAMIPRID], in assay [1], the LC50 came out at 19.24 mgAi/L and the LC95 is listed as 167.9 mgAi/L.

For `CC1(C)C(C=C(Cl)Cl)C1C(=O)OC(C#N)c1cccc(Oc2ccccc2)c1` (stereo not drawn) [ALPHA-CYPERMETHRIN], in assay [1], the LC50 was determined as 19.48 mgAi/L and the LC95 came to 176.8 mgAi/L.

With `C=C(C)CNc1c([S+]([O-])C(F)(F)F)c(C#N)nn1-c1c(Cl)cc(C(F)(F)F)cc1Cl` (stereo not given) [BUTENE-FIPRONIL], in assay [1], the LC50 worked out at 0.0068 mgAi/L and the LC95 is recorded as 0.0419 mgAi/L.

For the molecule `CNC(=O)Oc1cccc2ccccc12` [CARBARIL], the LC95 in assay [1] amounted to 5.71 mgAi/L.

Regarding `CCCCN(CCCC)SN(C)C(=O)Oc1cccc2c1OC(C)(C)C2` [CARBOSULFAN], in assay [1], the LC50 turned out to be 0.95 mgAi/L and the LC95 was determined as 7.4 mgAi/L.

Consider `O=C(NC(=O)c1c(F)cccc1F)Nc1cc(Cl)c(Oc2ncc(C(F)(F)F)cc2Cl)c(Cl)c1` [CHLORFLUAZURON], for which, in assay [1], the LC50 is 7533 mgAi/L and the LC95 was found to be 111205 mgAi/L.

Turning to `CCOP(=S)(OCC)Oc1nc(Cl)c(Cl)cc1Cl` [CHLORPYRIFOS], in assay [1], the LC50 was found to be 0.081 mgAi/L and the LC95 worked out at 0.45 mgAi/L.

As to `CC1(C)C(/C=C(\Cl)C(F)(F)F)C1C(=O)OC(C#N)c1cccc(Oc2ccccc2)c1` (stereo not given) [CYHALOTHRIN], in assay [1], the LC50 is reported as 10.98 mgAi/L and the LC95 is recorded as 93.25 mgAi/L.

For `CC[S+]([O-])c1c(C#N)nn(-c2c(Cl)cc(C(F)(F)F)cc2Cl)c1N` (stereo not given) [ETHIPROLE], in assay [1], the LC50 amounted to 4.67 mgAi/L and the LC95 stood at 21.35 mgAi/L.

As for `COP(=S)(OC)Oc1ccc([N+](=O)[O-])c(C)c1` [FENITROTHION], in assay [1], the LC50 is on record as 2.1 mgAi/L and the LC95 was found to be 34.74 mgAi/L.

Turning to `CC1(C)C(C(=O)OC(C#N)c2cccc(Oc3ccccc3)c2)C1(C)C` (stereo not given) [FENPROPATHRIN], in assay [1], the LC50 is listed as 150.3 mgAi/L and the LC95 was determined as 1327.5 mgAi/L.

As for `N#Cc1nn(-c2c(Cl)cc(C(F)(F)F)cc2Cl)c(N)c1[S+]([O-])C(F)(F)F` (stereo not given) [FIPRONIL], in assay [1], the LC50 is reported as 0.29 mgAi/L and the LC95 came to 1.82 mgAi/L.

For `O=C(NC(=O)c1c(F)cccc1F)Nc1cc(Cl)c(OC(F)(F)C(F)F)c(Cl)c1` [HEXAFLUMURON], in assay [1], the LC50 was determined as 9672 mgAi/L and the LC95 came to 51197 mgAi/L.

As to `O=[N+]([O-])/N=C1\NCCN1Cc1ccc(Cl)nc1` [IMIDACLOPRID], in assay [1], the LC50 is on record as 311.9 mgAi/L and the LC95 was determined as 2675 mgAi/L.

For the molecule `O=[N+]([O-])/N=C1\NCCN1Cc1cnc(Cl)s1` [IMIDACLOTHIZ], in assay [1], the LC50 is 75.27 mgAi/L and the LC95 is 636.5 mgAi/L.

Regarding `CNC(=O)Oc1ccccc1C(C)C` [ISOPROCARB], in assay [1], the LC50 is listed as 0.12 mgAi/L and the LC95 is 0.95 mgAi/L.

As for `CNC(=O)Oc1cccc(C)c1` [METOLCARB], in assay [1], the LC50 was 0.53 mgAi/L and the LC95 amounted to 5.2 mgAi/L.

`CCN(Cc1ccc(Cl)nc1)/C(=C/[N+](=O)[O-])NC` [NITENPYRAM]: in assay [1], the LC50 came out at 4.37 mgAi/L and the LC95 worked out at 31.37 mgAi/L.

`CCOP(=S)(OCC)O/N=C(\C#N)c1ccccc1` [PHOXIM]: in assay [1], the LC50 was 0.14 mgAi/L and the LC95 was found to be 1.35 mgAi/L.

`CCCSP(=O)(OCC)Oc1ccc(Br)cc1Cl` (stereo not given) [PROFENOFOS]: in assay [1], the LC50 is 0.18 mgAi/L and the LC95 amounted to 1.73 mgAi/L.

Regarding `CNC(=O)Oc1cc(C)cc(C(C)C)c1` [PROMECARB], in assay [1], the LC50 came out at 0.32 mgAi/L and the LC95 is on record as 1.91 mgAi/L.

In the case of `CCc1ccc(C(=O)NN(C(=O)c2cc(C)cc(C)c2)C(C)(C)C)cc1` [TEBUFENOZIDE], in assay [1], the LC50 is 3452 mgAi/L and the LC95 came to 21616 mgAi/L.

Consider `N#C/N=C1\SCCN1Cc1ccc(Cl)nc1` [THIACLOPRID], for which, in assay [1], the LC50 amounted to 56.73 mgAi/L and the LC95 is reported as 461.2 mgAi/L.

As for `CN1COCN(Cc2cnc(Cl)s2)/C1=N\[N+](=O)[O-]` [THIAMETHOXAM], in assay [1], the LC50 was 1.86 mgAi/L and the LC95 is recorded as 13.35 mgAi/L.

Regarding `CCOP(=S)(OCC)Oc1ncn(-c2ccccc2)n1` [TRIAZOPHOS], in assay [1], the LC50 is given as 1.81 mgAi/L and the LC95 came out at 21.65 mgAi/L.

In assay [2], IVERMECTIN gave an LC50 of 2.36 mgAi/L and an LC95 of 15.2 mgAi/L.

The record behind these values is ChEMBL document CHEMBL3045809, “Susceptibility of adult Trichogramma nubilale (Hymenoptera: Trichogrammatidae) to selected insecticides with different modes of action” (Crop Prot, 2012).
